The text below walks through data of US11773129B2, “Methods of preventing or treating atherosclerosis with inhibitors of specific isoenzymes of human neuraminidase” (THE GOVERNORS OF THE UNIVERSITY OF ALBERTA, priority 2017, dated 2023).

Common to all, as to format: biochemical
Assay [1] deals with T1, NEU1 (Homo sapiens, UniProt Q99519).
T1 construct: made in house; host or cells: HEK293 (lentiviral transduction), crude lysate
As to the kind of experiment: IC50 inhibition assay using 4MU-NANA as the substrate, NEU1. Conditions: 4MU-NANA as the substrate; read-out: IC50 NEU1. Here is the method: Two weeks after transduction cells were harvested and a crude lysate showing ˜200 nmol/h mg of sialidase activity used in experiments.
Assays were performed with duplicates for each point and IC50 was obtained by plotting the data with Graphpad™ Prism 5.0.

The subject of assay [2] is NEU1, NEU2, NEU3, NEU4. As to the kind of experiment: Isoenzyme specificity/selectivity from 4MU-NANA IC50 across the four human neuraminidases. Conditions: isoenzyme(s) the compound is specific for; dual (bispecific) when ratio of IC50 is about 3 or less.
Assay [3] has as its target T2, NEU4 (Homo sapiens, UniProt Q8WWR8).
T2 sequence (Q8WWR8 1-484): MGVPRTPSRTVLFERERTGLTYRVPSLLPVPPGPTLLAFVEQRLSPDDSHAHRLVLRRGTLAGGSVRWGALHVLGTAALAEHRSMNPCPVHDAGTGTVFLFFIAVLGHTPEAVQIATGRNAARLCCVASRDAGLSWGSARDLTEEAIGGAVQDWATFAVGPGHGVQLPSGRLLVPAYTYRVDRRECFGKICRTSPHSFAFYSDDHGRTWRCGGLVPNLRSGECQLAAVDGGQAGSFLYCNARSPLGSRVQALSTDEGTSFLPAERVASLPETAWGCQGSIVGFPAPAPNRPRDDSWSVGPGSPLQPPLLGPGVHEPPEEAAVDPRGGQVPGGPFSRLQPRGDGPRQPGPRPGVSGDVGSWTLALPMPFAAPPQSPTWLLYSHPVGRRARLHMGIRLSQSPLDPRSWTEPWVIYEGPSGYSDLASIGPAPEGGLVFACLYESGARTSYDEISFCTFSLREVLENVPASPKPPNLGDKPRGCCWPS
As to the kind of experiment: IC50 inhibition assay using 4MU-NANA as the substrate, NEU4. More on the design: GST; made in house; host or cells: E. coli. Conditions: 4MU-NANA as the substrate; read-out: IC50 NEU4.

Assay [4] concerns the target T3, NEU3 (Homo sapiens, UniProt Q9UQ49).
T3 sequence (Q9UQ49 1-428): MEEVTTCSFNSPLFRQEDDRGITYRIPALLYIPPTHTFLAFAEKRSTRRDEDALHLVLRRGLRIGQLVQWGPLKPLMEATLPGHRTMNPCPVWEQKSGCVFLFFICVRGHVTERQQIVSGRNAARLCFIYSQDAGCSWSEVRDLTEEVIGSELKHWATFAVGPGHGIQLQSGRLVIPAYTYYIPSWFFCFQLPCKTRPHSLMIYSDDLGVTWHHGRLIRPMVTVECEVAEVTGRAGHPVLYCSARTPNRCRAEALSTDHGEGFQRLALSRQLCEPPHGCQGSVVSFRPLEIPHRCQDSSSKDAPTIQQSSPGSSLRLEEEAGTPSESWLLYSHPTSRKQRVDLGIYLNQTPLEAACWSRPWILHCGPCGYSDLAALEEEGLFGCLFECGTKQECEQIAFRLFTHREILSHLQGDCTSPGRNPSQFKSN
As to the kind of experiment: IC50 inhibition assay using 4MU-NANA as the substrate, NEU3. Conditions: 4MU-NANA as the substrate; read-out: IC50 NEU3. Set-up: MBP (N); made in house; host or cells: E. coli.

Where only a bound is given, the exact number is not on record here.

As a reminder, the IC50 is the concentration at which inhibition is half-maximal. For the compound `CC(=O)N[C@@H]1C(NC(=N)N)C=C(C(=O)O)OC1C(O)C(O)Cn1cc(-c2ccc(C(=O)O)cc2)nn1` (some centres unmarked) [8a], the IC50 in assay [1] is over 500 µM; in assay [3], 24 ± 2 µM; in assay [4], 0.61 ± 0.1 µM. For the same compound, the Target entry in assay [2] is reported as “NEU3”.
`CC(=O)N[C@H]1[C@H]([C@H](O)[C@H](O)Cn2cc(-c3ccc(C(=O)O)cc3)nn2)OC(C(=O)O)=C[C@@H]1NC(=O)NCCC(=O)O` [compound 18]: the results for the IC50 in assay [1], in assay [3] and in assay [4] were over 500 µM, 66 ± 16 µM and over 500 µM, respectively. In assay [2], the Target entry is “NEU4”.
On to `CC(=O)N[C@@H]1C(O)C=C(C(=O)O)OC1C(O)C(O)CNC(=O)c1ccccc1` (stereo partly drawn) [compound 56, 5-Acetamido-9-benzamido-2,6-anhydro-3,5-dideoxy-D-glycero-D-galacto-non-2-enonic acid], for which the results for the IC50 in assay [1], in assay [3] and in assay [4] were 2.5 ± 0.3 µM, 150 ± 10 µM and 34 ± 5 µM, respectively. Also, the Target result in assay [2] is reported as “NEU1”.
For `CC(=O)N[C@H]1[C@H]([C@H](O)[C@H](O)CNC(=O)c2cccc(N)c2)OC(C(=O)O)=C[C@@H]1O` [compound 61, 5-Acetamido-9-(3-amino)benzamido-2,6-anhydro-3,5-dideoxy-b-glycero-D-galacto-non-2-enonic acid], in that order: 6.5 ± 0.7 µM, 150 ± 40 µM, 35 ± 6 µM and “NEU1”.
Taken in the same sequence, the figures for `CC(C)C(=O)N[C@H]1[C@H]([C@H](O)[C@H](O)CO)OC(C(=O)O)=C[C@@H]1O` [compound 34, 5-isobutyramido-2,6-anhydro-3,5-dideoxy-D-glycero-D-galacto-non-2-enonic acid] were 5.3 ± 0.8 µM, 71 ± 17 µM, over 500 µM and “NEU1”.
For the compound `CCCCCC(=O)N[C@H]1[C@H]([C@H](O)[C@H](O)CNC(=O)CCC)OC(C(=O)O)=C[C@@H]1O` [compound 70, 5-Hexanamido-9-butanamido-2,6-anhydro-3,5-dideoxy-D-glycero-D-galacto-non-2-enonic acid], the IC50 is 1.2 ± 0.1 µM in assay [1], over 500 µM in assay [3] and over 500 µM in assay [4]. The Target result in assay [2] is on record as “NEU1”.
Consider `CCCCCCC(=O)NCC(O)C(O)C1OC(C(=O)O)=CC(O)[C@H]1NC(C)=O` (stereo partly drawn) [compound 52, 5-Acetamido-9-heptanamido-2,6-anhydro-3,5-dideoxy-D-glycero-D-galacto-non-2-enonic acid], for which the IC50 in assay [1] is 9.9 ± 1.3 µM; in assay [3], 310 ± 30 µM; in assay [4], 39 ± 8 µM. In assay [2], the Target result was “NEU1”.
For `CC(=O)N[C@@H]1C(O)C=C(C(=O)O)OC1C(O)C(O)Cn1cc(-c2ccc(NC(=O)c3ccccc3)cc2)nn1` (some centres unmarked) [compound 27], in that order: 190 ± 70 µM, 3.7 ± 0.4 µM, 2.9 ± 0.2 µM and “NEU3/ NEU4”.
Turning to `CC(=O)N[C@H]1[C@H]([C@H](O)[C@H](O)Cn2cc(-c3ccc(N)cc3)nn2)OC(C(=O)O)=C[C@@H]1O` [7c], the values for the half-maximal inhibitory concentration (IC50) in assay [1], in assay [3] and in assay [4] were 76 ± 16 µM, 12 ± 1 µM and 8.7 ± 0.9 µM, respectively. In assay [2], the Target entry is “NEU3/ NEU4”.
Taken in the same sequence, the figures for `CC(=O)Nc1ccc(C(=O)NCCCCC(=O)NC[C@@H](O)[C@@H](O)[C@@H]2OC(C(=O)O)=C[C@H](O)[C@H]2NC(C)=O)cc1` [compound 62, 5-Acetamido-9-(5-(4-acetamidobenzamido))pentanamido-2,6-anhydro-3,5-dideoxy-d-glycero-d-galacto-non-2-enonic acid] were 240 ± 70 µM, 46 ± 13 µM, 31 ± 5 µM and “NEU3/ NEU4”.
Take `CC(=O)Nc1ccc(-c2cn(C[C@@H](O)[C@@H](O)[C@@H]3OC(C(=O)O)=C[C@H](O)[C@H]3NC(C)=O)nn2)cc1` [7b]: the results for the IC50 in assay [1], in assay [3] and in assay [4] were 59 ± 5 µM, 11 ± 1 µM and 5.5 ± 0.5 µM, respectively. In assay [2], the Target entry is recorded as “NEU3/ NEU4”.
Taken in the same sequence, the figures for `CC(=O)N[C@H]1[C@H]([C@H](O)[C@H](O)Cn2cc(-c3ccc(Oc4ccccc4)cc3)nn2)OC(C(=O)O)=C[C@@H]1O` [7j] were over 500 µM, 0.97 ± 0.24 µM, 1 ± 0.1 µM and “NEU3/ NEU4”.
Taken in the same sequence, the figures for `CCCCCC(=O)NC[C@@H](O)[C@@H](O)[C@@H]1OC(C(=O)O)=C[C@H](O)[C@H]1NC(=O)CCCCC` [compound 64, 5-Hexanamido-9-hexanamido-2,6-anhydro-3,5-dideoxy-d-glycero-d-galacto-non-2-enonic acid] were 4.3 ± 0.8 µM, over 500 µM, over 500 µM and “NEU1”.
For `CC(=O)N[C@@H]1C(O)C=C(C(=O)O)OC1C(O)C(O)CNC(=O)CCC(C)C` (stereo partly drawn) [compound 55, 5-Acetamido-9-(4-methylpentanamido)-2,6-anhydro-3,5-dideoxy-D-glycero-D-galacto-non-2-enonic acid], in that order: 3.2 ± 0.3 µM, 150 ± 50 µM, 54 ± 6 µM and “NEU1”.
Consider `O=C(Cn1cc(-c2ccc(C(=O)O)cc2)nn1)N[C@@H]1C(O)C=C(C(=O)O)OC1C(O)C(O)CO` (some centres unmarked) [compound 43], for which the IC50 in assay [1] was over 500 µM; in assay [3] it was 400 ± 160 µM; in assay [4], over 500 µM. Also, in assay [2], the Target result is given as “NEU2”.
For `CC(=O)N[C@H]1[C@H]([C@H](O)[C@H](O)Cn2cc(-c3ccc(C)cc3)nn2)OC(C(=O)O)=C[C@@H]1O` [7d], the figures for the IC50 in assay [1], in assay [3] and in assay [4] were 51 ± 7 µM, 3.9 ± 0.4 µM and 8.2 ± 1.3 µM, respectively. Further, the Target entry in assay [2] is listed as “NEU3/ NEU4”.
Taken in the same sequence, the figures for `CCCCC(=O)NCC(O)C(O)C1OC(C(=O)O)=CC(O)[C@H]1NC(=O)CCCC` (stereo partly drawn) [compound 57, 5-Pentanamido-9-pentanamido-2,6-anhydro-3,5-dideoxy-D-glycero-D-galacto-non-2-enonic acid] were 1.5 ± 0.2 µM, over 500 µM, over 500 µM and “NEU1”.
Consider `CC(=O)Nc1cccc(C(=O)NC[C@@H](O)[C@@H](O)[C@@H]2OC(C(=O)O)=C[C@H](O)[C@H]2NC(C)=O)c1` [compound 60, 5-Acetamido-9-(3-acetamido)benzamido-2,6-anhydro-3,5-dideoxy-d-glycero-d-galacto-non-2-enonic acid], for which the IC50 in assay [1] stood at 6.5 ± 1.1 µM; in assay [3], 52 ± 9 µM; in assay [4] it was 7.1 ± 0.7 µM. Besides, the Target entry in assay [2] is on record as “NEU1/ NEU3”.
For `O=C(Cn1cc(-c2ccc(F)cc2)nn1)N[C@@H]1C(O)C=C(C(=O)O)OC1C(O)C(O)CO` (some centres unmarked) [compound 45], in that order: over 500 µM, 100 ± 20 µM, 240 ± 40 µM and “NEU2”.
Take `CC(=O)N[C@H]1[C@H]([C@H](O)[C@H](O)CNC(=O)c2ccc(N)cc2)OC(C(=O)O)=C[C@@H]1O` [compound 59, 5-Acetamido-9-(4-amino)benzamido-2,6-anhydro-3,5-dideoxy-b-glycero-D-galacto-non-2-enonic acid]: the values for the IC50 in assay [1], in assay [3] and in assay [4] were 29 ± 5 µM, 210 ± 80 µM and 31 ± 6 µM, respectively. In assay [2], the Target result was “NEU1/ NEU3”.
